One assay deals with A549 and BEAS-2B cells. Briefly: Particle-induced secretion of pro-inflammatory cytokines in lung epithelial cell lines (overall). Format: cell-based. As to the method: Secretion of the pro-inflammatory cytokines interleukin (IL)-6, IL-8 (as well as GM-CSF and MCP-1) into cell media in response to particle exposure was measured in A549 and BEAS-2B cells using the following method.
Lung epithelial cells were seeded at 5×10^4 in 24-well plates. After pre-incubation with NBMI, the antioxidant compound, N-acetyl-L-cysteine (NAC), which was used as a positive control, or vehicle, for 3 hours the medium was removed.
Fresh media containing various particles (as below) in different concentrations was in a total volume of 0.5 ml for an additional 24 hours. The supernatants were then separated from the cells by centrifugation.
IL-8, IL-6, GM-CSF and MCP-1 were measured in the cell free fluid using the DuoSet ELISA Development kit (R&D Systems, Abingdon, UK) according to manufacturer's protocol.
Exposure to medium only served as negative control. Each experiment was performed twice with 4 replicates.
The effect of pre-incubation with 50 μM NBMI on particle-induced cytokine formation was tested at various concentrations of particles.

Assay [1] concerns primary neurons incubated with oligomeric Aβ42. Nature of the assay: Aβ42-induced cell death in primary neurons co-cultured with N9 cells (MTT viability). Format: cell-based, mice. The settings on record: primary neurons incubated with oligomeric Aβ42 (200 nM), NBMI 10 nM pre-treatment 30 minutes, FIG. 1. The method, then:
(§1) Aβ42 stock was solubilized in DMSO at a concentration of 2 mM, vortexed and sonicated for 2 minutes to ensure complete dissolution. Aβ42 was diluted in 50 mM NaPi, 100 mM NaCl (pH 7.4) buffer at a concentration of 200 μM and was used within 3 hours at a final concentration of 200 nM.
Primary cultures of cortical neurons were prepared from the cerebral cortex of mice at embryonic stage 17 (E17). The cells from each cortex were seeded separately on poly-L-ornithine (Sigma) pre-coated 6-well plates at a density of 0.25×10^6 cells/cm^2 in Neurobasal media containing B27 supplement with antioxidant, 1% penstrep and 1% glutamine.
(§2) After 10 days' incubation, neurons were used in experiments. Where indicated, cells were pre-treated for 30 minutes with NBMI (10 nM) added directly to the cell culture medium.
To determine cell viability, cells were washed with PBS (pH 7.4). MTT solution (3-(4,5-dimethylthiazol-2yl)-2,5-diphenyl tetrazolium bromide) was added to cells for 30 minutes at 37° C. After three washes, the insoluble formazan product was dissolved in dimethyl sulfoxide. The optical density of each culture well was then measured using a micro-plate reader (Molecular Probes, Garching, Germany) at 550 nm. The optical density of formazan formed in control cells was taken as 100% of viability. […]

A further assay has as its system TNF-α. Nature of the assay: Primary microglia activation (TNF-α release, ELISA) following Aβ42 administration. The class given is cell-based. The settings on record: FIG. 2A. As to the method: as §1, §2
(§3) TNF-α secretion from primary microglia and the BV2 cell line was valued by a specific sandwich-type enzyme-linked immunoabsorbent assay (ELISA) (Duoset, R&D system) according to the manufacturer's instructions. Intracellular concentration of Aβ42 was measured using a specific sandwich-type ELISA assay (human Aβ42 kit, Invitrogen, KHB3441 and mouse/rat, IBL 27721; Immuno-Biological Laboratories Co., Ltd., Japan) according to the manufacturer's instructions.
On the technique in general: ELISA stands for enzyme-linked immunosorbent assay.

In a further assay the test system is microglia. Nature of the assay: Internalization of Aβ42 by microglia. The class given is cell-based. The settings on record: following Aβ42 administration; FIG. 2B. The method, then: as §1, §3
N9 cells were treated with 200 nM Aβ42488 (Anaspect), and AR internalization was recorded in culture for 24 hours after AR administration using a CelIR microscope, with the image processed using CelIR software.

The next assay has as its target T1, Aβ42 (Homo sapiens, UniProt P05067).
T1 construct: Aβ42 stock was solubilized in DMSO at a concentration of 2 mM; host or cells: added to primary microglia cultures
Briefly: Aggregation state of Aβ42 in media and cell lysate of primary microglia cultures (ELISA). The class given is cell-based. As to conditions: in the media and in the cell lysate, FIG. 3. The method, then:
Aβ42 stock was solubilized in DMSO at a concentration of 2 mM, vortexed and sonicated for 2 minutes to ensure complete dissolution. Aβ42 was diluted in 50 mM NaPi, 100 mM NaCl (pH 7.4) buffer at a concentration of 200 μM and was used within 3 hours at a final concentration of 200 nM. TNF-α secretion from primary microglia and the BV2 cell line was valued by a specific sandwich-type enzyme-linked immunoabsorbent assay (ELISA) (Duoset, R&D system) according to the manufacturer's instructions. Intracellular concentration of Aβ42 was measured using a specific sandwich-type ELISA assay (human Aβ42 kit, Invitrogen, KHB3441 and mouse/rat, IBL 27721; Immuno-Biological Laboratories Co., Ltd., Japan) according to the manufacturer's instructions. Homogenization was performed with a cold 4× volume of PBS supplemented with the 1× protease inhibitor cocktail, followed by the addition of a solution 8.2 M guanidine/82 mM Tris HCl (pH 8.0) to yield a solution with a 5M final guanidine concentration.

This note sets out measurements from US11628151B2, “N,N-bis-2-mercaptoethyl isophthalamide for the treatment of neurodegenerative diseases” (EMERAMED LIMITED, priority 2014, dated 2023).

T1 sequence (P05067 672-713 limits assumed): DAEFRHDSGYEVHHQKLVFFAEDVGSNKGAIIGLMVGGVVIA

With `CC(=O)N[C@@H](CS)C(=O)O` [NAC, N-acetyl-L-cysteine, reference compound], the “secretion of inflammatory cytokines” value with A549 and BEAS-2B cells (pre-incubation with 5 mM NAC (positive control)) is recorded as “effective in reducing”.

As for `O=C(NCCS)c1cccc(C(=O)NCCS)c1` [NBMI, N,N-bis-2-mercaptoethyl isophthalamide], the “particle-induced secretion of pro-inflammatory cytokines” value in the assay on A549 and BEAS-2B cells (both cell lines (A549, BEAS-2B), pre-incubation with 50 μM NBMI) is listed as “can reduce”. The Aβ42-induced cell death entry in assay [1] is “reduced”. In the assay on TNF-α, the “primary microglia activation (evaluated as TNF-α release)” value is on record as “blocked”. Also, the “internalization of Aβ42 by microglia” value in the assay on microglia is “modulated”. In addition, at Aβ42, the “aggregation state of Aβ42” value is reported as “changed”.
